This assay has as its target Glycogen synthase kinase-3 beta (Homo sapiens, UniProt P49841). The assay is described as follows: GSK-3beta Kinase Inhibition Assay. As to conditions: pH 7.5; 37 °C. As to the method: Human GSK-3beta was expressed as the N-terminal FLAG-tagged protein using a baculovirus expression system. The kinase assay was conducted in a 96-well plate assay format. The kinase reactions were initiated by addition of ATP-solution (final 500 nM), and were incubated for 90 min at 37 deg C for GSK-3 beta. The reactions were terminated by the addition of Kinase-Glo reagent containing EDTA. […] The reaction window was calculated from the difference of the average signals obtained from the control (5% DMSO) and the background wells. […] The best-fit lines were obtained by analyzing the logistic fitting equation.

Sequence of Glycogen synthase kinase-3 beta (P49841 whole entry): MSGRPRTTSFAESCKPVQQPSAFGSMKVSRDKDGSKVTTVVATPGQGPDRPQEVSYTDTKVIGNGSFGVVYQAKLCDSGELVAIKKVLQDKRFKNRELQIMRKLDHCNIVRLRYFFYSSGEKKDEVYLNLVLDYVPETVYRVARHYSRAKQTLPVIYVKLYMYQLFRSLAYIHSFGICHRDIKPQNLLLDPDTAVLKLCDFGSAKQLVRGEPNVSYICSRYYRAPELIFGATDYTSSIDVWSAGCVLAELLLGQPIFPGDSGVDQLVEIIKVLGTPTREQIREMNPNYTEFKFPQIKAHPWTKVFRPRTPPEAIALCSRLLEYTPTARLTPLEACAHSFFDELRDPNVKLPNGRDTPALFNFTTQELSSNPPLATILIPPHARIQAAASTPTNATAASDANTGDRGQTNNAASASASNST

For the compound `COc1ccc(CSc2nnc(-c3ccc4nccn4c3)o2)cc1C(F)(F)F` [oxadiazole derivative, 20q], half-maximal inhibition (IC50) was put at 6.5 nM.

Broadly, the IC50 is the point on the concentration scale where inhibition reaches its midpoint.

Values taken from BindingDB's records for doi:10.1016/j.bmc.2009.01.019 (Takeda Pharmaceutical, 2009).
